Measurements reported in patent US20260053861A1, “CELL COMPOSITIONS AND METHODS OF USING THE SAME” (THE REGENTS OF THE UNIVERSITY OF CALIFORNIA, priority 2022, published 2026).
Where a name gives a salt, the structure may show the parent alone.

Each compound was assayed on hPSC-SCs. Details: not given.
`CC(C)c1cccc(C(C)C)c1O` [Propofol] was tested, and the z.score.t was −0.411. `C[C@@H]1O[C@@H](O[C@@H]2C=C3CC[C@@H]4[C@H](CC[C@]5(C)[C@@H](c6ccc(=O)oc6)CC[C@]45O)[C@@]3(C)CC2)[C@H](O)[C@H](O)[C@H]1O` [Proscillaridin A] was tested, and the z.score.t was −1.543. Work on `CC[C@@H](C)C(=O)O[C@H]1[C@H](O)[C@H]2[C@@H](CN3C[C@@H](C)CC[C@H]3[C@@]2(C)O)[C@@H]2C[C@]34O[C@]5(O)[C@@H](OC(=O)[C@@](C)(O)CC)CC[C@@]3(C)[C@@H]5[C@@H](OC(C)=O)[C@@H](OC(C)=O)[C@H]4[C@@]21O` [Protoveratrine A] yielded a z.score.t of −0.3319. `CN1[C@@H]2CCC[C@H]1CC(=O)C2.Cl` [Pseudopelletierine hydrochloride] was tested, and the z.score.t was −0.6864. `Cc1ncc(CO)c(CO)c1O.Cl` [Pyridoxine hydrochloride] showed a z.score.t of −0.5337. `CCC1(CC)C(=O)C=CNC1=O` [Pyrithyldione] gave a z.score.t of 0.7158. Compound `O.O.O=c1c(O)c(-c2ccc(O)c(O)c2)oc2cc(O)cc(O)c12` [Quercetine dihydrate] has a z.score.t of 1.371. In the case of `COc1ccc2c3c([nH]c2c1)[C@H]1C[C@H]2[C@H](C[C@@H](O)[C@H](OC)[C@H]2C(=O)O)CN1CC3.Cl` [Reserpinic acid hydrochloride], the z.score.t was −0.4278. For `COc1ccn(C)c(=O)c1C#N` [Ricinine], the z.score.t was 0.8646. With `Cc1nc2n(c(=O)c1CCN1CCC(c3noc4cc(F)ccc34)CC1)CCCC2` [Risperidone] the z.score.t was 0.02517. In the case of `O=[N+]([O-])c1cc([As](=O)(O)O)ccc1O` [Roxarsone], the z.score.t was −0.751. Compound `c1ccc2c(c1)CCCc1cc(NCCN3CCOCC3)nnc1-2` [SR-95639A] has a z.score.t of −0.4139. Work on `C[n+]1cc2c3c(ccc2c2ccc4cc5c(cc4c21)OCO5)OCO3` [Sanguinarine] yielded a z.score.t of −1.558. Work on `Br.C[N+]1([O-])[C@@H]2CC(OC(=O)[C@H](CO)c3ccccc3)C[C@H]1[C@@H]1O[C@@H]12` (some centres unmarked) [Scopolamin-N-oxide hydrobromide] yielded a z.score.t of −0.1983. `CN1[C@@H]2C[C@@H](OC(=O)[C@H](CO)c3ccccc3)C[C@H]1[C@@H]1O[C@@H]12` [Scopolamine hydrochloride] gave a z.score.t of 0.07936. Work on `COc1cc2c(cc1O)[C@@H]1Cc3ccc(OC)c(O)c3CN1CC2` [Scoulerine] yielded a z.score.t of −1.209. `O=C1C=C2C=C[C@@H]3C[C@@]2(O1)[C@H]1CCCCN31` [Securinine] was tested, and the z.score.t was −0.9042. `C#CCN(C)[C@H](C)Cc1ccccc1` [Selegiline hydrochloride] gave a z.score.t of −0.9978. Work on `C=C1C/C(=C/C)C(=O)O[C@@H]2CCN3CC=C(COC(=O)[C@]1(C)O)[C@H]23` [Seneciphylline] yielded a z.score.t of 0.767.

Same assay, conditions: HTS viability of hPSC-SCs in the presence of 30 mM glucose; Prestwick library; Table S4
`[H]/N=C(\N/C(=N/[H])Nc1ccc(Cl)cc1)NC(C)C` [Proguanil hydrochloride] was tested, and the z.score.t was −0.1187. `CN(C)CCCN1c2ccccc2Sc2ccccc21` [Promazine hydrochloride] gave a z.score.t of −1.845. In the case of `CC(CN1c2ccccc2Sc2ccccc21)N(C)C` (centres unmarked) [Promethazine hydrochloride], the z.score.t was 1.578. `CC(C)NCC(O)c1ccc2ccccc2c1` (centres unmarked) [Pronethalol hydrochloride] gave a z.score.t of −0.4684. For `CCCNCC(O)COc1ccccc1C(=O)CCc1ccccc1` (centres unmarked) [Propafenone hydrochloride], the z.score.t was 1.211. Work on `CC(C)[N+](C)(CCOC(=O)C1c2ccccc2Oc2ccccc21)C(C)C` [Propantheline bromide] yielded a z.score.t of 0.9525. `CCCOc1ccc(C(=O)OCCN(CC)CC)cc1N` [Proparacaine hydrochloride] gave a z.score.t of 0.7158. `CC[N+](C)(CC)CCC[n+]1c(-c2ccccc2)c2cc(N)ccc2c2ccc(N)cc21.[I-].[I-]` [Propidium iodide] gave a z.score.t of −0.7567. With `CCCOc1cc(N)ccc1C(=O)OCCN(CC)CC` [Propoxycaine hydrochloride] the z.score.t was −0.8229. `CC(C)NCC(O)COc1cccc2ccccc12` (centres unmarked) [Propranolol hydrochloride] was tested, and the z.score.t was −1.412. `CCCc1cc(=O)[nH]c(=S)[nH]1` [Propylthiouracil] gave a z.score.t of −0.2904. Work on `CNCCCC1c2ccccc2C=Cc2ccccc21` [Protriptyline hydrochloride] yielded a z.score.t of −0.3678. Work on `CC(O)Cn1cnc2c1c(=O)n(C)c(=O)n2C` (centres unmarked) [Proxyphylline] yielded a z.score.t of −0.3023. Compound `COc1ccc(C[C@H](N)C(=O)N[C@H]2[C@@H](O)[C@H](n3cnc4c(N(C)C)ncnc43)O[C@@H]2CO)cc1` [Puromycin dihydrochloride] has a z.score.t of −2.056. Compound `NC(=O)c1cnccn1` [Pyrazinamide] has a z.score.t of 1.73. `COc1ccc(CN(CCN(C)C)c2ccccn2)cc1` [Pyrilamine maleate] was tested, and the z.score.t was 0.07016. For `CCc1nc(N)nc(N)c1-c1ccc(Cl)cc1` [Pyrimethamine], the z.score.t was 0.5856. For `CCN(CC)CCCC(C)Nc1c2ccc(Cl)cc2nc2ccc(OC)cc12` (centres unmarked) [Quinacrine dihydrochloride dihydrate], the z.score.t was −1.898. `CCOC(=O)[C@H](CCc1ccccc1)N[C@@H](C)C(=O)N1Cc2ccccc2C[C@H]1C(=O)O` [Quinapril HCl] showed a z.score.t of −0.1464. With `CCC1NC(=O)c2cc(S(N)(=O)=O)c(Cl)cc2N1` (centres unmarked) [Quinethazone] the z.score.t was −0.9264. In the case of `O=C(O)[C@]1(O)C[C@@H](O)[C@@H](O)[C@H](O)C1` [Quinic acid], the z.score.t was 0.5268. For `C=C[C@H]1C[N@@]2CC[C@H]1C[C@@H]2[C@@H](O)c1ccnc2ccc(OC)cc12` [Quinidine hydrochloride monohydrate], the z.score.t was −0.6093. With `CC(=O)SCC(Cc1ccccc1)C(=O)NCC(=O)OCc1ccccc1` (centres unmarked) [Racecadotril] the z.score.t was −0.1853. `O=C(c1ccc(OCCN2CCCCC2)cc1)c1c(-c2ccc(O)cc2)sc2cc(O)ccc12` [Raloxifene hydrochloride] was tested, and the z.score.t was −1.825. In the case of `CCOC(=O)[C@H](CCc1ccccc1)N[C@@H](C)C(=O)N1[C@H](C(=O)O)C[C@@H]2CCC[C@@H]21` [Ramipril], the z.score.t was −0.5351. For `CNC(=C[N+](=O)[O-])NCCSCc1ccc(CN(C)C)o1` [Ranitidine hydrochloride], the z.score.t was 0.4486. Compound `COc1ccccc1OCC(O)CN1CCN(CC(=O)Nc2c(C)cccc2C)CC1` (centres unmarked) [Ranolazine] has a z.score.t of 1.442. For `COC(=O)[C@H]1[C@H]2C[C@H]3c4[nH]c5ccccc5c4CCN3C[C@H]2CC[C@@H]1O` [Rauwolscine hydrochloride], the z.score.t was 1.384. With `CCN1CCC[C@H]1CNC(=O)c1c(OC)ccc(Br)c1OC` [Remoxipride Hydrochloride] the z.score.t was 0.05395. `CCOc1cc(CC(=O)N[C@@H](CC(C)C)c2ccccc2N2CCCCC2)ccc1C(=O)O` [Repaglinide] gave a z.score.t of −1.216. With `COC(=O)[C@H]1[C@H]2C[C@@H]3c4[nH]c5cc(OC)ccc5c4CCN3C[C@H]2C[C@@H](OC(=O)/C=C/c2cc(OC)c(OC)c(OC)c2)[C@@H]1OC` [Rescinnamin] the z.score.t was 0.006455. In the case of `COC(=O)[C@H]1[C@H]2C[C@@H]3c4[nH]c5cc(OC)ccc5c4CCN3C[C@H]2C[C@@H](OC(=O)c2cc(OC)c(OC)c(OC)c2)[C@@H]1OC` [Reserpine], the z.score.t was −1.042. For `Oc1ccc(C=Cc2cc(O)cc(O)c2)cc1` [Resveratrol], the z.score.t was 0.9702. Work on `CC1=C(/C=C/C(C)=C/C=C/C(C)=C/C(=O)O)C(C)(C)CCC1` [Retinoic acid] yielded a z.score.t of 1.751. With `NC(=O)c1ncn([C@@H]2O[C@H](CO)[C@@H](O)[C@H]2O)n1` [Ribavirin] the z.score.t was 2.03. `Cc1cc2nc3c(=O)[nH]c(=O)nc-3n(C[C@H](O)[C@H](O)[C@H](O)CO)c2cc1C` [Riboflavine] showed a z.score.t of 1.211. In the case of `NC[C@H]1O[C@H](O[C@H]2[C@H](O[C@@H]3O[C@H](CO)[C@@H](O)[C@H]3O)[C@@H](O)[C@H](N)C[C@@H]2N)[C@H](N)[C@@H](O)[C@@H]1O` [Ribostamycin sulfate salt], the z.score.t was −0.7757. `CO[C@H]1/C=C/O[C@@]2(C)Oc3c(C)c(O)c4c(c3C2=O)C2=NC3(CCN(CC(C)C)CC3)NC2=C(NC(=O)/C(C)=C\C=C\[C@H](C)[C@H](O)[C@@H](C)[C@@H](O)[C@@H](C)[C@H](OC(C)=O)[C@@H]1C)C4=O` [Rifabutin] gave a z.score.t of −0.1474. Compound `CO[C@H]1/C=C/O[C@@]2(C)Oc3c(C)c(O)c4c(O)c(c(/C=N/N5CCN(C)CC5)c(O)c4c3C2=O)NC(=O)/C(C)=C\C=C\[C@H](C)[C@H](O)[C@@H](C)[C@@H](O)[C@@H](C)[C@H](OC(C)=O)[C@@H]1C` [Rifampicin] has a z.score.t of 1.139. `CCC(=O)[C@@]1(C)[C@H](C)C[C@H]2[C@@H]3CCC4=CC(=O)C=C[C@]4(C)[C@H]3[C@@H](O)C[C@@]21C` [Rimexolone] gave a z.score.t of −1.354. `CC(NCCc1ccc(O)cc1)C(O)c1ccc(O)cc1` (centres unmarked) [Ritodrine hydrochloride] gave a z.score.t of 0.5046. With `COc1ccc(C2CNC(=O)C2)cc1OC1CCCC1` (centres unmarked) [Rolipram] the z.score.t was −0.01101. `CN(C)[C@@H]1C(O)=C(C(=O)NCN2CCCC2)C(=O)[C@@]2(O)C(O)=C3C(=O)c4c(O)cccc4[C@@](C)(O)[C@H]3C[C@@H]12` [Rolitetracycline] gave a z.score.t of 1.601. `Cn1c([N+](=O)[O-])cnc1COC(N)=O` [Ronidazole] showed a z.score.t of −0.5875. For `CC(=O)OCC(=O)NCCCOc1cccc(CN2CCCCC2)c1` [Roxatidine Acetate HCl], the z.score.t was 1.139. `CC[C@H]1OC(=O)[C@H](C)[C@@H](O[C@H]2C[C@@](C)(OC)[C@@H](O)[C@H](C)O2)[C@H](C)[C@@H](O[C@@H]2O[C@H](C)C[C@H](N(C)C)[C@H]2O)[C@](C)(O)C[C@@H](C)/C(=N\OCOCCOC)[C@H](C)[C@@H](O)[C@]1(C)O` [Roxithromycin] gave a z.score.t of 0.3241. In the case of `CC(C)Cc1ccc([C@H](C)C(=O)O)cc1` [S-(+)-ibuprofen], the z.score.t was 1.02. `CC(C)(C)NCC(O)c1ccc(O)c(CO)c1` (centres unmarked) [Salbutamol] gave a z.score.t of 0.5041. `OCc1cc(C(O)CNCCCCCCOCCCCc2ccccc2)ccc1O` (centres unmarked) [Salmeterol] was tested, and the z.score.t was −1.331. Compound `C[C@@H]1NCCc2cc(O)c(O)cc21` [Salsolinol hydrobromide] has a z.score.t of 0.4048. `CC(C)(C)NC(=O)[C@@H]1C[C@@H]2CCCC[C@@H]2CN1C[C@@H](O)[C@H](Cc1ccccc1)NC(=O)[C@H](CC(N)=O)NC(=O)c1ccc2ccccc2n1` [Saquinavir mesylate] gave a z.score.t of −0.3033. Work on `COc1cc2ccc(=O)oc2cc1O` [Scopoletin] yielded a z.score.t of −1.558.
